Source: the OPERA property sets (Mansouri et al. 2018)
≈ marks a conversion by molar mass, not a printed value.

Conditions: 25 °C

SMILES	solubility
C=C	4670 µM (≈ 131 µg/mL)
C1CCCCC1	654 µM (≈ 55 µg/mL)
CCCCCC	110 µM (≈ 9.5 µg/mL)
C=CC=C	13600 µM (≈ 735 µg/mL)
Cc1ccc(C)c(C)c1	474 µM (≈ 57 µg/mL)
C1CCCCCCC1	70.4 µM (≈ 7.9 µg/mL)
CC1CCCC1	499 µM (≈ 42 µg/mL)
C=CC(=C)C	9340 µM (≈ 636 µg/mL)

Now from value to compound:

solubility	SMILES
4750 µM (≈ 200 µg/mL)	C=CC
1050 µM (≈ 61.2 µg/mL)	CCCC
3940 µM (≈ 221 µg/mL)	C=CCC
90800 µM (≈ 3640 µg/mL)	C#CC
